In ChEMBL document CHEMBL3244171, “[1-(beta-mercapto-beta,beta-cyclopentamethylenepropionic acid),4-valine,-8-D-arginine]vasopressin, a potent and selective inhibitor of the vasopressor response to arginine-vasopressin” (J Med Chem, 1978) one finds pA2 and Activity data, which are given here for 2 compounds.

Assay [1] in a line: Antioxytocic activity in rat uterus assessed as antagonist activity on oxytocin-induced effect. It is filed as functional, tissue-based.
In another assay the test system is Rattus norvegicus. Put plainly: Antidiuretic activity in iv dosed rat assessed as agonist activity on arginine-vasopressin-induced effect. Type of assay: functional, Urine.

Where a SMILES comes first, the peptide text is derived from it.

As a reminder, the pA2 is a measure of antagonist potency on a negative log scale. As for `CC(C)[C@@H]1NC(=O)[C@H](Cc2ccccc2)NC(=O)[C@H](Cc2ccc(O)cc2)NC(=O)CC(C)(C)SSC[C@@H](C(=O)N2CCC[C@H]2C(=O)N[C@H](CCCNC(=N)N)C(=O)NCC(N)=O)NC(=O)[C@H](CC(N)=O)NC1=O` (HELM PEPTIDE1{Y.F.V.N.C.P.[dR].G.[am]}|CHEM1{[CC(C)(CC(=O)[*:1])S[*:2]]}$PEPTIDE1,CHEM1,1:R1-1:R1|PEPTIDE1,CHEM1,5:R3-1:R2$$$V2.0), in assay [1], the pA2 was 7.23. Turning to `CC(C)[C@@H]1NC(=O)[C@H](Cc2ccccc2)NC(=O)[C@H](Cc2ccc(O)cc2)NC(=O)CC2(CCCCC2)SSC[C@@H](C(=O)N2CCC[C@H]2C(=O)N[C@H](CCCN=C(N)N)C(=O)NCC(N)=O)NC(=O)[C@H](CC(N)=O)NC1=O` (HELM PEPTIDE1{Y.F.V.N.C.P.[dR].G.[am]}|CHEM1{[O=C(CC1(S[*:2])CCCCC1)[*:1]]}$PEPTIDE1,CHEM1,1:R1-1:R1|PEPTIDE1,CHEM1,5:R3-1:R2$$$V2.0), in the assay with Rattus norvegicus, the Activity came out at 0.1 U/ml. In addition, the pA2 in assay [1] amounted to 6.62.
